In PMC12420824, “Discovery of a selective alpha-kinase 1 inhibitor for the rare genetic disease ROSAH syndrome” (Nature Communications, 2025):

How the values were obtained:
Conditions in all cases: read-out: % Enzyme Activity (relative to DMSO control), 10 uM
SGK3/SGKL = SGK3/SGKL (Homo sapiens, UniProt Q96BR1); assay: HotSpot kinase assay
Excerpt: (§1) Additionally, a 10-dose dilution series of staurosporine and other enzyme-appropriate compounds were included as positive control inhibitors.

MLK3/MAP3K11 = MLK3/MAP3K11 (Homo sapiens, UniProt Q16584); assay: HotSpot kinase assay
Excerpt: as §1

LIMK2 = LIMK2 (Homo sapiens, UniProt P53671); assay: HotSpot kinase assay
Excerpt: as §1

MYLK4 = MYLK4 (Homo sapiens, UniProt Q86YV6); assay: HotSpot kinase assay
Excerpt: as §1

STK32C/YANK3 = STK32C/YANK3 (Homo sapiens, UniProt Q86UX6); assay: HotSpot kinase assay
c-MET = c-MET (Homo sapiens, UniProt P08581); assay: HotSpot kinase assay
Excerpt: as §1

EPHB4 = EPHB4 (Homo sapiens, UniProt P54760); assay: HotSpot kinase assay
Excerpt: as §1

PKCepsilon = PKCepsilon (Homo sapiens, UniProt Q02156); assay: HotSpot kinase assay
Excerpt: as §1

FES/FPS = FES/FPS (Homo sapiens, UniProt P07332); assay: HotSpot kinase assay
IRAK1 = IRAK1 (Homo sapiens, UniProt P51617); assay: HotSpot kinase assay
Excerpt: as §1

STK32B/YANK2 = STK32B/YANK2 (Homo sapiens, UniProt Q9NY57); assay: HotSpot kinase assay
Excerpt: as §1

GRK3 = GRK3 (Homo sapiens, UniProt P35626); assay: HotSpot kinase assay
Excerpt: as §1

FMS = FMS (Homo sapiens, UniProt P07333); assay: HotSpot kinase assay
Excerpt: as §1

SBK1 = SBK1 (Homo sapiens, UniProt Q52WX2); assay: HotSpot kinase assay
Excerpt: as §1

TAOK3/JIK = TAOK3/JIK (Homo sapiens, UniProt Q9H2K8); assay: HotSpot kinase assay
AMPK (A2/B1/G2) = AMPK (A2/B1/G2) (Homo sapiens, UniProt P54646); assay: HotSpot kinase assay
Excerpt: as §1

TRKA = TRKA (Homo sapiens, UniProt P04629); assay: HotSpot kinase assay
Excerpt: as §1

HIPK3 = HIPK3 (Homo sapiens, UniProt Q9H422); assay: HotSpot kinase assay
ZIPK/DAPK3 = ZIPK/DAPK3 (Homo sapiens, UniProt O43293); assay: HotSpot kinase assay
Excerpt: as §1

COT1/MAP3K8 = COT1/MAP3K8 (Homo sapiens, UniProt P41279); assay: HotSpot kinase assay
Excerpt: as §1

TRPM7/CHAK1 = TRPM7/CHAK1 (Homo sapiens, UniProt Q96QT4); assay: HotSpot kinase assay
HGK/MAP4K4 = HGK/MAP4K4 (Homo sapiens, UniProt O95819); assay: HotSpot kinase assay
Excerpt: as §1

CK1d = CK1d (Homo sapiens, UniProt P48730); assay: HotSpot kinase assay
PHKg2 = PHKg2 (Homo sapiens, UniProt P15735); assay: HotSpot kinase assay
Excerpt: as §1

TGFBR2 = TGFBR2 (Homo sapiens, UniProt P37173); assay: HotSpot kinase assay
Excerpt: as §1

PIM3 = PIM3 (Homo sapiens, UniProt Q86V86); assay: HotSpot kinase assay
Excerpt: as §1

CDK9/cyclin T1 = CDK9/cyclin T1 (Homo sapiens, UniProt P50750); assay: HotSpot kinase assay
PASK = PASK (Homo sapiens, UniProt Q96RG2); assay: HotSpot kinase assay
Excerpt: as §1

RSK3 = RSK3 (Homo sapiens, UniProt Q15349); assay: HotSpot kinase assay
Excerpt: as §1

MYO3A = MYO3A (Homo sapiens, UniProt Q8NEV4); assay: HotSpot kinase assay
Excerpt: as §1

ERBB4/HER4 = ERBB4/HER4 (Homo sapiens, UniProt Q15303); assay: HotSpot kinase assay
Excerpt: as §1

STK22D/TSSK1 = STK22D/TSSK1 (Homo sapiens, UniProt Q9BXA7); assay: biochemical
Excerpt: as §1

TYK2 = TYK2 (Homo sapiens, UniProt P29597); assay: HotSpot kinase assay
Excerpt: as §1

PDK3/PDHK3 = PDK3/PDHK3 (Homo sapiens, UniProt Q15120); assay: HotSpot kinase assay
Excerpt: as §1

mTOR/FRAP1 = mTOR/FRAP1 (Homo sapiens, UniProt P42345); assay: HotSpot kinase assay
Excerpt: as §1

JAK2 = JAK2 (Homo sapiens, UniProt O60674); assay: HotSpot kinase assay
MUSK = MUSK (Homo sapiens, UniProt O15146); assay: HotSpot kinase assay
Excerpt: as §1

RSK1 = RSK1 (Homo sapiens, UniProt Q15418); assay: HotSpot kinase assay
CDK17/cyclin Y (PCTK2) = CDK17/cyclin Y (PCTK2) (Homo sapiens, UniProt Q00537); assay: HotSpot kinase assay
Excerpt: as §1

STK32B/YANK2, sequence (Q9NY57 whole entry): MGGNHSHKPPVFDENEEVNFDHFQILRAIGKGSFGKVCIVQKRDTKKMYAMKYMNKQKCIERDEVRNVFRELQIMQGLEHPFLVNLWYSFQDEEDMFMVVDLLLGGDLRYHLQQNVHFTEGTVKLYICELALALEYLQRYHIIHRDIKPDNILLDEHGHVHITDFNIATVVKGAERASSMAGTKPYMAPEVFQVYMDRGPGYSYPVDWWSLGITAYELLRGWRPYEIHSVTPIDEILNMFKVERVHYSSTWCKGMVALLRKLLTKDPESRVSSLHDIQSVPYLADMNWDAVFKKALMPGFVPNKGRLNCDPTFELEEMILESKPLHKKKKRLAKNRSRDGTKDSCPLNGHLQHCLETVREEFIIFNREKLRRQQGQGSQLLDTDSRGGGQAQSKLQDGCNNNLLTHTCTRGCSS
SBK1, sequence (Q52WX2 whole entry): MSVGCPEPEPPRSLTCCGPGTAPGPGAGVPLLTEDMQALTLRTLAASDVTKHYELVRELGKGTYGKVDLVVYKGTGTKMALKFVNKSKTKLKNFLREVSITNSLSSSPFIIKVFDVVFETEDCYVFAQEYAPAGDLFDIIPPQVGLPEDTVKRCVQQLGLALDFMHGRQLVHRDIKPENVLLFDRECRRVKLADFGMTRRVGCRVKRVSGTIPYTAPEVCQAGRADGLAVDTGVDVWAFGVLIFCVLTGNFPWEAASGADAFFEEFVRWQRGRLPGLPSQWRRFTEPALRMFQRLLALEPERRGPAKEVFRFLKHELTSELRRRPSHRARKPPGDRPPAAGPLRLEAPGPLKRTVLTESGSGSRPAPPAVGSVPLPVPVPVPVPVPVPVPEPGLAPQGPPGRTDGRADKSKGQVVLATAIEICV
TAOK3/JIK, sequence (Q9H2K8 whole entry): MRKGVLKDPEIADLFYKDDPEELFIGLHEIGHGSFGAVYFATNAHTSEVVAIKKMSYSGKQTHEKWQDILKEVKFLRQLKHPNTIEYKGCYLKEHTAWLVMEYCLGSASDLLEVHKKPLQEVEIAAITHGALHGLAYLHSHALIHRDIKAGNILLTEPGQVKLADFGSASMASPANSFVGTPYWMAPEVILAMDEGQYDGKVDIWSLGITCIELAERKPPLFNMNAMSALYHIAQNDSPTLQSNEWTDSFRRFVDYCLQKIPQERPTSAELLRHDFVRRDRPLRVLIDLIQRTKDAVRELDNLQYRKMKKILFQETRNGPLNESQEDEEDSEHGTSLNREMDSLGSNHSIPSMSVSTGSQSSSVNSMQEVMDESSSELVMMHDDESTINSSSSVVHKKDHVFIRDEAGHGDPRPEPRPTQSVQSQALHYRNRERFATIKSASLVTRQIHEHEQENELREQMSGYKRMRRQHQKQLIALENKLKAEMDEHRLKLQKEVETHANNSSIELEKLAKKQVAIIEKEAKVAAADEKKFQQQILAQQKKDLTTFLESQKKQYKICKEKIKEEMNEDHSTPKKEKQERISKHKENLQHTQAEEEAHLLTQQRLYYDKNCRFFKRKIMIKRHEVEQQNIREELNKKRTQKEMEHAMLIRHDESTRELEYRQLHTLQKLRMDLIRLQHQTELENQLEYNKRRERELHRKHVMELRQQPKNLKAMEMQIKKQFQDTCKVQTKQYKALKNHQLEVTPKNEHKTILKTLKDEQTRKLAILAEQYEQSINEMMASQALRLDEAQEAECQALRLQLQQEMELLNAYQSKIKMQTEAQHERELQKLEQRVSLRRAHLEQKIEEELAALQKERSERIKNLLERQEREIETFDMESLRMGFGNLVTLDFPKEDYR
TRPM7/CHAK1, sequence (Q96QT4 whole entry): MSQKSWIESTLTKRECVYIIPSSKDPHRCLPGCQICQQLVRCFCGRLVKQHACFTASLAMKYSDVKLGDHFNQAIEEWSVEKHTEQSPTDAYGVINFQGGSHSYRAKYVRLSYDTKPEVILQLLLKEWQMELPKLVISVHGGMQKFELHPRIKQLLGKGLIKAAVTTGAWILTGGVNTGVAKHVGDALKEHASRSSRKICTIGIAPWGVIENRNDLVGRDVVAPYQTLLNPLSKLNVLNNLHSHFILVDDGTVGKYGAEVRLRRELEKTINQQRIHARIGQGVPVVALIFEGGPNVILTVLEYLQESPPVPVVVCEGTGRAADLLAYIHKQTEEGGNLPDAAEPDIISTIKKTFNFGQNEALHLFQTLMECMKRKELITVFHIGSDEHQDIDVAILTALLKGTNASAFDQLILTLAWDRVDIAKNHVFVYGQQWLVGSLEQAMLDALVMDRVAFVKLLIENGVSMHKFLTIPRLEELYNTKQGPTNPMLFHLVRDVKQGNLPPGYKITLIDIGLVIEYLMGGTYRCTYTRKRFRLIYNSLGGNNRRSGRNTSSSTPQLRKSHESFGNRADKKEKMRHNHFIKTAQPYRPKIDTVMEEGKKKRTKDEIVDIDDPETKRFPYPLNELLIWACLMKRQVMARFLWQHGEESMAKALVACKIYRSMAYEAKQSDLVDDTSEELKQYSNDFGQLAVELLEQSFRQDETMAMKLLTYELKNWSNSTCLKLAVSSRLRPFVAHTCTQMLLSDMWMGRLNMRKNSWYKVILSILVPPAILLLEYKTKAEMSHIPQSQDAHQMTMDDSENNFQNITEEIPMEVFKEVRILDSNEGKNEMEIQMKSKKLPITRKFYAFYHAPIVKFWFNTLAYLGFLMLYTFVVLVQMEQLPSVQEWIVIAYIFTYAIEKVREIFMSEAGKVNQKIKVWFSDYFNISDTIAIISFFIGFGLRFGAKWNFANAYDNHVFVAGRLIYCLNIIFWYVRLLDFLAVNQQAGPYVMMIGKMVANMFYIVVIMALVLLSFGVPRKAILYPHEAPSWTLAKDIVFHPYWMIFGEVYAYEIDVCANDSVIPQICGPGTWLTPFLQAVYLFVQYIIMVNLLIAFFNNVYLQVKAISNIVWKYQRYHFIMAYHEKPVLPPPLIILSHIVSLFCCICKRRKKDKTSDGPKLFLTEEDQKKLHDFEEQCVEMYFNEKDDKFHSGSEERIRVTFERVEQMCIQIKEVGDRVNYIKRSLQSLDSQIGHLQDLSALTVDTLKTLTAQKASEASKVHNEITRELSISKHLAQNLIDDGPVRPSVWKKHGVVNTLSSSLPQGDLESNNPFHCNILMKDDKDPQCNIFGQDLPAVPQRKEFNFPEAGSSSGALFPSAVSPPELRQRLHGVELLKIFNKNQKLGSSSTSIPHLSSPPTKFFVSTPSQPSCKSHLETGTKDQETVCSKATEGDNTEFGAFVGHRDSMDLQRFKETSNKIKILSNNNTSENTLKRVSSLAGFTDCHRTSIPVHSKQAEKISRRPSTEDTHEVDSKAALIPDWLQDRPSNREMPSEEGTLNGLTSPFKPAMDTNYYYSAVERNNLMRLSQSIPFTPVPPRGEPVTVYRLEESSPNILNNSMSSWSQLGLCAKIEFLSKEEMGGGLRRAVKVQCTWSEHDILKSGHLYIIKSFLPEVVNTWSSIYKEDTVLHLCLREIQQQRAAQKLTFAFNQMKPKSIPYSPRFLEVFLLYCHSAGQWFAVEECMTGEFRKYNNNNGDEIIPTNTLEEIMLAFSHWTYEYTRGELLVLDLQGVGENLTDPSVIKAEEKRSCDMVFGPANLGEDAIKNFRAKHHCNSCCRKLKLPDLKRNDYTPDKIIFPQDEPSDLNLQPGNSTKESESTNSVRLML
PASK, sequence (Q96RG2 whole entry): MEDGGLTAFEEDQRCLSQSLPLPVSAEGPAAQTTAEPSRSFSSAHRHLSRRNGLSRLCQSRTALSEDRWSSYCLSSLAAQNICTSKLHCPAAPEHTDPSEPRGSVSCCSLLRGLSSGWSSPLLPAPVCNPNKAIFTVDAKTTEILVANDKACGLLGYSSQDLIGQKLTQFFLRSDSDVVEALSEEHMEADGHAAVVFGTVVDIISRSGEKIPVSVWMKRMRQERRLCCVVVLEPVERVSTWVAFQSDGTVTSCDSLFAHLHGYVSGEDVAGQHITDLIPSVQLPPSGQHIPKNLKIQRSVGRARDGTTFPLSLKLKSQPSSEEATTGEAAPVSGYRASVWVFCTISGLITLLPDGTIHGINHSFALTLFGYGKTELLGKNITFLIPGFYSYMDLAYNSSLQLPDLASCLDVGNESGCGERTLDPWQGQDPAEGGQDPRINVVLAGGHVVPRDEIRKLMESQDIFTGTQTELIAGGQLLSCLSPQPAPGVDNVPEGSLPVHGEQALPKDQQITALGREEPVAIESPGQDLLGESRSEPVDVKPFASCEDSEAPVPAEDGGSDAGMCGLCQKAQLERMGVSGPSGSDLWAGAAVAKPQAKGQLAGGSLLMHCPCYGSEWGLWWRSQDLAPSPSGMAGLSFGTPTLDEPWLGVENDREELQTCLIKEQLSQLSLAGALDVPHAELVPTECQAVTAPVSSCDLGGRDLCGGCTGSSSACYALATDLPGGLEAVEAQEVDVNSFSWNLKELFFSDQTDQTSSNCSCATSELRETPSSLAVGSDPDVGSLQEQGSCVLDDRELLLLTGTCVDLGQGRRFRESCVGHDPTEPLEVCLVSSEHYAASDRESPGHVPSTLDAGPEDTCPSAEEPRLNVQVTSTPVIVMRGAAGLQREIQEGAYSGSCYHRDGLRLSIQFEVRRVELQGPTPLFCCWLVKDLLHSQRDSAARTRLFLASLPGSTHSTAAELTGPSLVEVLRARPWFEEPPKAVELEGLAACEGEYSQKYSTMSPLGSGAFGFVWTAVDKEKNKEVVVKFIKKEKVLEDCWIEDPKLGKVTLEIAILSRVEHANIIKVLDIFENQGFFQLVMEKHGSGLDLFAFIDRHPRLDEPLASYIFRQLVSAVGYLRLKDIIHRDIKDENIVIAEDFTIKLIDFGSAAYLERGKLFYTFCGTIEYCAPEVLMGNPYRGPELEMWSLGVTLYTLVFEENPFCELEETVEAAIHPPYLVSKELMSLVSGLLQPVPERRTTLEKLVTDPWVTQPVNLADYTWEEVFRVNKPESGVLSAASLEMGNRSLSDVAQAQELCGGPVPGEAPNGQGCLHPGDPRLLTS

Compound: C#C[C@@](C)(c1ccc(Cl)cc1)c1csc(NC(=O)c2c(F)cc(N3CCNCC3)cc2F)n1 (stereo in doubt) [DF-003]
- remaining activity at 10 µM (SGK3/SGKL): 84.3%
- remaining activity at 10 µM (MLK3/MAP3K11): 77.8%
- remaining activity at 10 µM (LIMK2): 85.2%
- remaining activity at 10 µM (MYLK4): 87.1%
- remaining activity at 10 µM (STK32C/YANK3): 114%
- remaining activity at 10 µM (c-MET): 90.7%
- remaining activity at 10 µM (EPHB4): 85.6%
- remaining activity at 10 µM (PKCepsilon): 81.6%
- remaining activity at 10 µM (FES/FPS): 71.1%
- remaining activity at 10 µM (IRAK1): 88%
- remaining activity at 10 µM (STK32B/YANK2): 99.6%
- remaining activity at 10 µM (GRK3): 111%
- remaining activity at 10 µM (FMS): 75.7%
- remaining activity at 10 µM (SBK1): 94.3%
- remaining activity at 10 µM (TAOK3/JIK): 21.7%
- remaining activity at 10 µM (AMPK (A2/B1/G2)): 82.9%
- remaining activity at 10 µM (TRKA): 46.4%
- remaining activity at 10 µM (HIPK3): 96.7%
- remaining activity at 10 µM (ZIPK/DAPK3): 68.5%
- remaining activity at 10 µM (COT1/MAP3K8): 20.7%
- remaining activity at 10 µM (TRPM7/CHAK1): 104%
- remaining activity at 10 µM (HGK/MAP4K4): 90.5%
- remaining activity at 10 µM (CK1d): 81.5%
- remaining activity at 10 µM (PHKg2): 74.2%
- remaining activity at 10 µM (TGFBR2): 91.5%
- remaining activity at 10 µM (PIM3): 95.5%
- remaining activity at 10 µM (CDK9/cyclin T1): 116%
- remaining activity at 10 µM (PASK): 56.5%
- remaining activity at 10 µM (RSK3): 88.8%
- remaining activity at 10 µM (MYO3A): 75.5%
- remaining activity at 10 µM (ERBB4/HER4): 121%
- remaining activity at 10 µM (STK22D/TSSK1): 94.2%
- remaining activity at 10 µM (TYK2): 82.7%
- remaining activity at 10 µM (PDK3/PDHK3): 89.9%
- remaining activity at 10 µM (mTOR/FRAP1): 92.1%
- remaining activity at 10 µM (JAK2): 108%
- remaining activity at 10 µM (MUSK): 105%
- remaining activity at 10 µM (RSK1): 69.2%
- remaining activity at 10 µM (CDK17/cyclin Y (PCTK2)): 82.4%
